Key:
Cholinesterase [1] = target: Cholinesterase (Equus caballus, UniProt P81908)
Description: Inhibition of equine serum BuChE using butyrylthiocholine as substrate preincubated for 5 mins followed by substrate addition and measured after 5 mins by Ellman's method

[2] = target: Amyloid-beta precursor protein (Homo sapiens) (UniProt P05067); assay: Inhibition of HFIP-pretreated amyloid beta (1 to 42) (unknown origin) aggregation at 10 uM after 36 to 48 hrs by thioflavin-T fluorescence assay relative to control; details: time 36-48 hrs
[3] = target: Acetylcholinesterase (Electrophorus electricus) (UniProt O42275); assay: Inhibition of electric eel AChE at 10 uM using acetylthiocholine as substrate preincubated for 5 mins followed by substrate addition and measured after 5 mins by Ellman's method relative to control; details: time 10.0 min
Acetylcholinesterase (Electrophorus electricus), sequence (O42275 24-633 limits assumed): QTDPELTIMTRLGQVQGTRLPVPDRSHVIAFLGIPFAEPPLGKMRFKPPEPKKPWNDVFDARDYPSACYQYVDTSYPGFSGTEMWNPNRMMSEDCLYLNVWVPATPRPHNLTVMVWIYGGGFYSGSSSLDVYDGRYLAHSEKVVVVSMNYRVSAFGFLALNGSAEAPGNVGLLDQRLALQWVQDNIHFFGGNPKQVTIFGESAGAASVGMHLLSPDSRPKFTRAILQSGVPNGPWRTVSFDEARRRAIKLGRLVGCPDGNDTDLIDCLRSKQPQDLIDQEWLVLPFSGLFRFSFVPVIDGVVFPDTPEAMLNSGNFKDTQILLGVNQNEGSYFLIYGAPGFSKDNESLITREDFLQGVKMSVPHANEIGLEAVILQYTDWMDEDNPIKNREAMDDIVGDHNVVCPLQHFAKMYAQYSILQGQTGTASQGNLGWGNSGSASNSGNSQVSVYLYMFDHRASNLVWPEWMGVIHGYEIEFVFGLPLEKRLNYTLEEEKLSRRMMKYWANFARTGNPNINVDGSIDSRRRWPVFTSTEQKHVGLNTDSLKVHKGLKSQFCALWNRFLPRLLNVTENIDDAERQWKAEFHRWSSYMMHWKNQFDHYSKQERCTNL

Beta-secretase 1 [4] = target: T1, Beta-secretase 1 (Homo sapiens, UniProt P56817); details: dose 50.0 µM, time 60.0 min
T1 sequence (P56817 whole entry): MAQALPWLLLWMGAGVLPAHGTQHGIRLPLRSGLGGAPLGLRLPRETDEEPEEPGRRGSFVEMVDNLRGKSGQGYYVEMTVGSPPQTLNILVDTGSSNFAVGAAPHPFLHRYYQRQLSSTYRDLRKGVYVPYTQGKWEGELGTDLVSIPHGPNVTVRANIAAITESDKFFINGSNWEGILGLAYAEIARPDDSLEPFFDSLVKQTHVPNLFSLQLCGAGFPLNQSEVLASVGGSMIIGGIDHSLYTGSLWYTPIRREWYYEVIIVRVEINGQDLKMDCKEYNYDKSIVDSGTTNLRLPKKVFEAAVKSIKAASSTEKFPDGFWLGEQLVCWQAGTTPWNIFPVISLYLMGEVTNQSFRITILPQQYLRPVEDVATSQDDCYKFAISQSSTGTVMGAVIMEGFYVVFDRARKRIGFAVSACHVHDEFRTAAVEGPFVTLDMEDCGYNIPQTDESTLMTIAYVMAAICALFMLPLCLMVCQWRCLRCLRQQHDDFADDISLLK

Cholinesterase [5] = target: T2, Cholinesterase (Homo sapiens, UniProt P06276)
T2 sequence (P06276 whole entry): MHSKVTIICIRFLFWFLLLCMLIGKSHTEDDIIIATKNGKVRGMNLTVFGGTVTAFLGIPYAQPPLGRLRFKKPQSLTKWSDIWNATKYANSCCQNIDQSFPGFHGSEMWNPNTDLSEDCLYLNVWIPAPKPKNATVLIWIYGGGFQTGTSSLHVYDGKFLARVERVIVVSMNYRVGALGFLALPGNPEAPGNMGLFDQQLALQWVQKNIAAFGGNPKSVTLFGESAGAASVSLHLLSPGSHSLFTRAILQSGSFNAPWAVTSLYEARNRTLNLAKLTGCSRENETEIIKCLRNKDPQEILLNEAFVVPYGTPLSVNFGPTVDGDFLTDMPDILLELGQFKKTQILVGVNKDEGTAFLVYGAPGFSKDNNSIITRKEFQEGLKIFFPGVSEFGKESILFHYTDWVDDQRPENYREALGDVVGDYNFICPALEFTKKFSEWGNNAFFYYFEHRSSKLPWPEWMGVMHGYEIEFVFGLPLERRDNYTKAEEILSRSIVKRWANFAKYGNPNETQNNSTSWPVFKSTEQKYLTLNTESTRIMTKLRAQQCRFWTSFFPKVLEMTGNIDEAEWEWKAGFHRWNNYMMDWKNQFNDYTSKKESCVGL
Description: Inhibition of human BuchE using butyrylthiocholine as substrate preincubated for 5 mins followed by substrate addition and measured after 5 mins by Ellman's method

Cholinesterase [6] = target: T2, Cholinesterase; assay: Inhibition of human BuchE at 1 uM using butyrylthiocholine as substrate preincubated for 5 mins followed by substrate addition and measured after 5 mins by Ellman's method relative to control; details: time 10.0 min
Beta-secretase 1 [7] = target: T1, Beta-secretase 1
[8] = target: T3, GABA transporter 4 (Mus musculus) (UniProt P31650); assay: Inhibition of mouse GAT3 expressed in HEK293 cell line assessed as reduction in [3H]GABA uptake at 100 uM incubated for 10 mins relative to control; type: cell-based
T3 sequence (whole entry): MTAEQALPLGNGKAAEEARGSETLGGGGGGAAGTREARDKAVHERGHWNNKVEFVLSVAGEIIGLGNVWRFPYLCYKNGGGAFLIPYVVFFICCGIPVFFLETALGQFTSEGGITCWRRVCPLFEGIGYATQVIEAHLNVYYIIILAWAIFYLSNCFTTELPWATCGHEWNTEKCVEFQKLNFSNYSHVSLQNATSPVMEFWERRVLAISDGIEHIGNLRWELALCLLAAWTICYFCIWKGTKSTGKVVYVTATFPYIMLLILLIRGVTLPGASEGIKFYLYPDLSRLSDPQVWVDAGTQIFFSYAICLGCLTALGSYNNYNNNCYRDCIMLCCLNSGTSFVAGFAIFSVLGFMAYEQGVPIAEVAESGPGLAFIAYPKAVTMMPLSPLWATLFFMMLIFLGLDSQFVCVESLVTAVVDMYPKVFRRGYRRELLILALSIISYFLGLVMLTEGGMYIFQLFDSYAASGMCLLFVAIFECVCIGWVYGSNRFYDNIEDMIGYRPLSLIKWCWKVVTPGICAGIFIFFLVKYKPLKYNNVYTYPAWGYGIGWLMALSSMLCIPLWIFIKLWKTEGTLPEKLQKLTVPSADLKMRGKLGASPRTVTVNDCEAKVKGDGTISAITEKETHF

[9] = target: Sodium- and chloride-dependent GABA transporter 1 (Mus musculus, UniProt P31648); assay: Inhibition of mouse GAT1 expressed in HEK293 cell line assessed as reduction in [3H]GABA uptake incubated for 10 mins; type: cell-based
[10] = target: Sodium- and chloride-dependent GABA transporter 1 (Mus musculus) (UniProt P31648); assay: Inhibition of NO711 binding to mouse GAT1 expressed in HEK cell membranes at 100 uM incubated for 40 mins in presence of NO711 by LC-ESI-MS/MS analysis relative to control; details: Membrane
GABA transporter 4 = target: T4, GABA transporter 4 (Mus musculus, UniProt P31650); assay: Inhibition of mouse GAT4 expressed in HEK293 cell line assessed as reduction in [3H]GABA uptake incubated for 10 mins; type: cell-based
T4 sequence (P31650 whole entry): T3 sequence (whole entry)

[11] = target: Sodium- and chloride-dependent GABA transporter 1 (Mus musculus) (UniProt P31648); assay: Inhibition of mouse GAT1 expressed in HEK293 cell line assessed as reduction in [3H]GABA uptake at 100 uM incubated for 10 mins relative to control; type: cell-based
[12] = target: T5, GABA transporter 3 (Mus musculus) (UniProt P31649); assay: Inhibition of mouse GAT2 expressed in HEK293 cell line assessed as reduction in [3H]GABA uptake at 100 uM incubated for 10 mins relative to control; type: cell-based
T5 sequence (whole entry): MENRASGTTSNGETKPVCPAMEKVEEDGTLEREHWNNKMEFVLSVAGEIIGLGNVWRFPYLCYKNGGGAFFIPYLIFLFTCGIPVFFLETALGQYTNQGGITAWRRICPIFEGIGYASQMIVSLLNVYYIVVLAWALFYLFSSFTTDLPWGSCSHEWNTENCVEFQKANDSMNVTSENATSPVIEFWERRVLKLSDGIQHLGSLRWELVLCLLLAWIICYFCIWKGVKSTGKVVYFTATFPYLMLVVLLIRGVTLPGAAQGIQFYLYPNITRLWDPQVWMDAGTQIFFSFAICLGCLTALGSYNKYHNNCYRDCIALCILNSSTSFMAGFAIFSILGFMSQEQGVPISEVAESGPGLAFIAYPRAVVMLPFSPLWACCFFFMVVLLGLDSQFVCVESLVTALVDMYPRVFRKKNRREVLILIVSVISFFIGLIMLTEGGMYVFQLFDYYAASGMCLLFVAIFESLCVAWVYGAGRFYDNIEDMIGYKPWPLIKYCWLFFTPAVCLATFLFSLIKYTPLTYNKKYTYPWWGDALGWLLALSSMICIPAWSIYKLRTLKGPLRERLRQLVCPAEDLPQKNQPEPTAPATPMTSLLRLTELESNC

Amyloid-beta precursor protein (Homo sapiens), sequence (P05067 whole entry): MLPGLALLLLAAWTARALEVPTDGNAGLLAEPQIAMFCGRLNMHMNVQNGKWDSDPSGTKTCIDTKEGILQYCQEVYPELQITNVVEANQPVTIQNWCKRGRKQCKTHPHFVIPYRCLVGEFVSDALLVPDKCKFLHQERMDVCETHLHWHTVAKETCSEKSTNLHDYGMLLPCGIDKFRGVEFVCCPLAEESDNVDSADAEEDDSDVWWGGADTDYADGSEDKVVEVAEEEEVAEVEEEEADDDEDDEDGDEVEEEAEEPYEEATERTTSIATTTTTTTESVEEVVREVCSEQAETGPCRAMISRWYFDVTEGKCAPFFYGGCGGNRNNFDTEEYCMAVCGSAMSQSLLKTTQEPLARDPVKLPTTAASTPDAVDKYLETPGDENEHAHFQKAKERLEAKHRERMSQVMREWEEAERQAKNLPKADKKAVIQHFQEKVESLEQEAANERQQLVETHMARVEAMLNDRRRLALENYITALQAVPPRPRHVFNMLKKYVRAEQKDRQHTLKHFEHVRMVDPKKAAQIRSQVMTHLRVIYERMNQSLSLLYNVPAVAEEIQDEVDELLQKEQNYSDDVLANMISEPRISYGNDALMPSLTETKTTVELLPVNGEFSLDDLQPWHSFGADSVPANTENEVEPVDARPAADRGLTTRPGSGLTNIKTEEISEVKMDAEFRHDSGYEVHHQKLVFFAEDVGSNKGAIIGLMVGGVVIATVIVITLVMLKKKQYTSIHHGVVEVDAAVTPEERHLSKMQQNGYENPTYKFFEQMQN
Cholinesterase (Equus caballus, UniProt P81908), sequence (P81908 whole entry): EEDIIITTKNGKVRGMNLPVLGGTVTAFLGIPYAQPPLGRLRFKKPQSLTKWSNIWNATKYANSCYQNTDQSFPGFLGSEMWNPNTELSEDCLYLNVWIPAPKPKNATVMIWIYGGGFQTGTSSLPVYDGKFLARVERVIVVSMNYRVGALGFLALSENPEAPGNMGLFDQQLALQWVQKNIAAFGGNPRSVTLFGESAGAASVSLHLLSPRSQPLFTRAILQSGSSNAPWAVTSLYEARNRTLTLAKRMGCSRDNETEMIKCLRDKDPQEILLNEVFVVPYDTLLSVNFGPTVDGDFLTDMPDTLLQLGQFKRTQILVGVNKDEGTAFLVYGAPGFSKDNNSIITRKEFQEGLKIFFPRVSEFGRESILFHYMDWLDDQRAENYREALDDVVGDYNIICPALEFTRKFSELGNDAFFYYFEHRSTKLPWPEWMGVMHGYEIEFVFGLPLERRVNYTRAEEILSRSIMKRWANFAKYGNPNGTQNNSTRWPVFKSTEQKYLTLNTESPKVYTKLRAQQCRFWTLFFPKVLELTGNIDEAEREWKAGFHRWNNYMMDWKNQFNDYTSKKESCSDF

Row | Structure (SMILES) | IC50 (Cholinesterase [1]) [nM] | inhibition [2] [%] | inhibition [3] [%] | inhibition (Beta-secretase 1 [4]) [%] | IC50 (Cholinesterase [5]) [nM] | inhibition (Cholinesterase [6]) [%] | IC50 (Beta-secretase 1 [7]) [nM] | inhibition [8] [%] | IC50 [9] [nM] | inhibition [10] [%] | IC50 (GABA transporter 4) [nM] | inhibition [11] [%] | inhibition [12] [%]
1 | COc1ccccc1CNC[C@H](O)[C@H](Cc1ccccc1)NCCC(c1ccccc1)c1ccccc1 | 1010 | 34.7 | < 10 | 65.5 | 800 | – | – | – | – | – | – | – | –
2 | O[C@H](CNCc1ccccc1)[C@H](Cc1ccccc1)NCC(c1ccccc1)c1ccccc1 | 950 | – | < 10 | 42 | 320 | – | – | – | – | – | – | – | –
3 | CC(C)(C)NC[C@H](O)[C@H](Cc1ccccc1)NC(=O)C(c1ccccc1)c1ccccc1 | 840 | 20.5 | < 10 | < 10 | – | 35.5 | – | – | – | – | – | – | –
4 | O[C@H](CNCc1ccccc1)[C@H](Cc1ccccc1)NCCC(c1ccccc1)c1ccccc1 | 1540 | 34.7 | < 10 | 55.3 | – | 71.7 | – | – | – | – | – | – | –
5 | CC(C)(C)c1cccc(CNCC(O)CNCCC(c2ccccc2)c2ccccc2)c1 (configuration not stated) | 2920 | – | 21.8 | – | 5740 | – | 41600 | – | – | – | – | – | –
6 | O=C(N[C@@H](Cc1ccccc1)[C@H](O)CNCc1ccccc1)C(c1ccccc1)c1ccccc1 | 1510 | – | < 10 | 56.2 | – | 34.1 | – | – | – | – | – | – | –
7 | CC(C)(C)c1ccc(CNC[C@H](O)[C@H](Cc2ccccc2)NC(=O)C(c2ccccc2)c2ccccc2)cc1 | 3440 | 20.5 | < 10 | – | 200 | – | 2100 | – | – | – | – | – | –
8 | CC(C)(C)c1cccc(CNC[C@@H](O)[C@H](Cc2ccccc2)NC(=O)CC(c2ccccc2)c2ccccc2)c1 | 450 | 20.5 | < 10 | – | – | 77.3 | 6000 | – | – | – | – | – | –
9 | O=C(N[C@@H](Cc1ccccc1)[C@@H](O)CNCc1ccccc1)C(c1ccccc1)c1ccccc1 | 230 | – | < 10 | 66.1 | – | 40.5 | – | 52 | 34700 | 74 | 26900 | – | –
10 | COc1ccccc1CNC[C@H](O)[C@H](Cc1ccccc1)NC(=O)C(c1ccccc1)c1ccccc1 | 110 | 20.5 | < 10 | 66.2 | 540 | – | – | 69 | 87100 | 80 | 20000 | – | –
11 | O=C(N[C@@H](Cc1ccccc1)[C@@H](O)CNCc1cccc(C(F)(F)F)c1)C(c1ccccc1)c1ccccc1 | 390 | – | < 10 | – | 670 | – | 8600 | – | – | – | – | – | –
12 | COc1cccc(CNC[C@@H](O)[C@H](Cc2ccccc2)NC(=O)CC(c2ccccc2)c2ccccc2)c1 | 1280 | 20.5 | < 10 | 49 | 440 | – | – | 92 | – | 65 | 5890 | 67 | –
13 | O=C(N[C@@H](Cc1ccccc1)[C@H](O)CNCC1CC1)C(c1ccccc1)c1ccccc1 | 3210 | 20.5 | < 10 | 44.4 | – | 12.3 | – | 54 | – | 74 | 74100 | 51 | 85
14 | COc1ccccc1CNC[C@H](O)[C@H](Cc1ccccc1)NCC(c1ccccc1)c1ccccc1 | 320 | 81.4 | < 10 | 55.2 | 580 | – | – | – | – | – | – | – | –
15 | CC(C)c1cccc(CNC[C@H](O)[C@H](Cc2ccccc2)NC(=O)C(c2ccccc2)c2ccccc2)c1 | 200 | – | < 10 | – | – | 74.9 | 3400 | – | – | – | – | – | –
16 | C[C@H](NC[C@@H](O)[C@H](Cc1ccccc1)NCC(c1ccccc1)c1ccccc1)c1ccccc1 | 950 | 34.7 | < 10 | 53.9 | 920 | – | – | – | – | – | – | – | –
17 | CC(C)c1cccc(CNC[C@@H](O)[C@H](Cc2ccccc2)NCCC(c2ccccc2)c2ccccc2)c1 | 1840 | 34.7 | 25.9 | – | – | 67.4 | 6600 | – | – | – | – | – | –
18 | CC(C)(NC[C@@H](O)[C@H](Cc1ccccc1)NC(=O)CC(c1ccccc1)c1ccccc1)c1ccccc1 | 3230 | 20.5 | < 10 | – | – | 13.3 | 8900 | – | – | – | – | – | –
19 | COc1ccccc1CNC[C@H](O)[C@H](Cc1ccccc1)NC(=O)CC(c1ccccc1)c1ccccc1 | 330 | 20.5 | < 10 | – | 350 | – | 23400 | – | – | – | – | – | –
20 | O=C(CC(c1ccccc1)c1ccccc1)N[C@@H](Cc1ccccc1)[C@H](O)CNCc1ccccc1 | – | 20.5 | < 10 | – | – | 62.3 | 35400 | – | – | – | – | – | –
21 | COc1cccc(CNC[C@@H](O)[C@H](Cc2ccccc2)NC(=O)C(c2ccccc2)c2ccccc2)c1 | 1550 | 20.5 | < 10 | 37 | – | 56.5 | – | 67 | – | 85 | 33100 | 61 | 61
22 | C[C@H](NC[C@@H](O)[C@H](Cc1ccccc1)NCCC(c1ccccc1)c1ccccc1)c1ccccc1 | 980 | 34.7 | < 10 | 62 | – | 72.5 | – | – | – | – | – | – | –
23 | CC(C)(C)NC[C@H](O)[C@H](Cc1ccccc1)NCCC(c1ccccc1)c1ccccc1 | 190 | 34.7 | < 10 | 51.3 | – | 68.5 | – | – | – | – | – | – | –
24 | CC(C)(NC[C@@H](O)[C@H](Cc1ccccc1)NCCC(c1ccccc1)c1ccccc1)c1ccccc1 | 1600 | 34.7 | < 10 | 71.8 | – | 53.2 | – | – | – | – | – | – | –
25 | COc1cccc(CNC[C@@H](O)[C@H](Cc2ccccc2)NCCC(c2ccccc2)c2ccccc2)c1 | 2040 | 34.7 | < 10 | 50.6 | – | 55.4 | – | – | – | – | – | – | –
26 | CC(C)(C)CNC[C@@H](O)[C@H](Cc1ccccc1)NC(=O)CC(c1ccccc1)c1ccccc1 | 2770 | – | < 10 | – | – | 46.2 | 33600 | – | – | – | – | – | –
27 | O=C(CC(c1ccccc1)c1ccccc1)N[C@@H](Cc1ccccc1)[C@@H](O)CNCc1ccccc1 | – | 20.5 | < 10 | – | – | 67.7 | 17400 | 76 | – | 83 | – | 61 | 74
28 | CC(C)(C)NC[C@H](O)[C@H](Cc1ccccc1)NC(=O)CC(c1ccccc1)c1ccccc1 | 11800 | 20.5 | < 10 | < 10 | – | < 10 | – | – | – | – | – | – | –
